Source: patent US8067424B2, “Selective inhibitors for cyclin-dependent kinases” (Emory University, priority 2007, dated 2011)
Read-outs that look alike come from different tables or passages of the source.

Columns and labels:
Type in all cases: biochemical
MAPKAP-K2 = MAPKAP-K2 (Homo sapiens, UniProt P49137); assay: Kinase screen: MAPKAP-K2 assay
Protocol: (§1) Generally, the same procedure was used for all assays. Since the total assay volume was 25.5 microliters, 0.5 microliters of inhibitors at 51× assay concentration were added to the plates before any other addition.
(§2) The basic procedure was to add 0.5 microliters inhibitor/control in DMSO to plate. Fifteen microliters of enzyme/substrate/buffer mix were added and incubated for 5 min. Ten microliters MgATP at the relevant concentration were added and incubated for 30 min. The assay was stopped by adding 5 microliters of 3% orthophosphoric acid. The assay was transferred to a p81 filter plate and read in a scintillation counter of 30 sec/well. Note that this assay procedure was not followed for MKK1, which instead involved a two-step assay, and PKC alpha, which required the addition of lipid vesicles.
MAPKAP-K2 assay: MAPKAP-K2 (5-20 mU diluted in 20 mM MOPS pH 7.5, 1 mM EDTA, 0.01% Brij35, 5% glycerol, 0.1% b-mercaptoethanol, 1 mg/ml BSA) was assayed against […] (SEQ ID NO: 3) in a final volume of […] containing 50 mM Na-b-glycerophosphate pH 7.5, 0.5 mM EDTA, 30 μM substrate peptide, 10 mM magnesium acetate and 0.02 mM [33P-g-ATP] (50-1000 cpm/pmole) and incubated for 30 min at room temperature. Assays were stopped by addition of 5 μl of 0.5 M (3%) orthophosphoric acid and then harvested onto P81 Unifilter plates with a wash buffer of 50 mM orthophosphoric acid.

CHK1 = molecular target: T1, CHK1 (Homo sapiens, UniProt O14757); assay: Kinase screen: CHK1 assay
T1 sequence (O14757 1-476): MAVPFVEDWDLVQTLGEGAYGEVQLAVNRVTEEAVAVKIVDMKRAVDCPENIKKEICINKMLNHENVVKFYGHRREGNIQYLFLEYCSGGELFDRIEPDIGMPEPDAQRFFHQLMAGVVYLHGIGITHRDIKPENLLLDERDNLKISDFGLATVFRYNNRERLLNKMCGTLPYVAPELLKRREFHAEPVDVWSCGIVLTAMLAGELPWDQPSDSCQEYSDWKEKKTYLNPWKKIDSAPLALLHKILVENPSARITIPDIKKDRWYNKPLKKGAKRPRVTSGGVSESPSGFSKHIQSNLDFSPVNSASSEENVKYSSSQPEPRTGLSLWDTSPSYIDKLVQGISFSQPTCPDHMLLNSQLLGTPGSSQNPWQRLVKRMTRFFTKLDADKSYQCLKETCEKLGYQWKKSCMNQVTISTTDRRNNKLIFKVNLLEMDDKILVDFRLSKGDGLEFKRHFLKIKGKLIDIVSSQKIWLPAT
Protocol: as §1, §2
CHK1 assay: CHK1 (5-20 mU diluted in 20 mM MOPS pH 7.5, 1 mM EDTA, 0.1% b-mercaptoethanol, 0.01% Brij-35, 5% glycerol, 1 mg/ml BSA) was assayed against CHKtide substrate peptide ([…]) (SEQ ID NO: 12) in a final volume of 25.5 μl containing 8 mM MOPS pH 7.0, 0.2 mM EDTA, 200 μM CHKtide, 10 mM magnesium acetate and 0.02 mM [33P-g-ATP] (50-1000 cpm/pmole) and incubated for 30 min at room temperature Assays were stopped by addition of 5 μl of 0.5 M (3%) orthophosphoric acid and then harvested onto P81 Unifilter plates with a wash buffer of 50 mM orthophosphoric acid.

PIM3 = PIM3 (Homo sapiens, UniProt Q86V86); assay: Kinase screen: PIM3 assay
Protocol: as §1, §2
PIM3 assay: PIM3 (5-20 mU diluted in 50 mM Tris pH 7.5, 0.1 mM EGTA, 0.1% b-mercaptoethanol, 1 mg/ml BSA) was assayed against a substrate peptide ([…]) (SEQ ID NO: 23) in a final volume of 25.5 μl containing 50 mM Tris pH 7.5, 0.05% b-mercaptoethanol, 300 μM substrate peptide, 10 mM magnesium acetate and 0.02 mM [33P-g-ATP] (50-1000 cpm/pmole) and incubated for 30 min at room temperature. Assays were stopped by addition of 5 μl of 0.5 M (3%) orthophosphoric acid and then harvested onto P81 Unifilter plates with a wash buffer of 50 mM orthophosphoric acid.

IKKβ = molecular target: T2, IKKβ (Homo sapiens, UniProt O14920); assay: Kinase screen: IKKb assay
T2 sequence (O14920 1-756): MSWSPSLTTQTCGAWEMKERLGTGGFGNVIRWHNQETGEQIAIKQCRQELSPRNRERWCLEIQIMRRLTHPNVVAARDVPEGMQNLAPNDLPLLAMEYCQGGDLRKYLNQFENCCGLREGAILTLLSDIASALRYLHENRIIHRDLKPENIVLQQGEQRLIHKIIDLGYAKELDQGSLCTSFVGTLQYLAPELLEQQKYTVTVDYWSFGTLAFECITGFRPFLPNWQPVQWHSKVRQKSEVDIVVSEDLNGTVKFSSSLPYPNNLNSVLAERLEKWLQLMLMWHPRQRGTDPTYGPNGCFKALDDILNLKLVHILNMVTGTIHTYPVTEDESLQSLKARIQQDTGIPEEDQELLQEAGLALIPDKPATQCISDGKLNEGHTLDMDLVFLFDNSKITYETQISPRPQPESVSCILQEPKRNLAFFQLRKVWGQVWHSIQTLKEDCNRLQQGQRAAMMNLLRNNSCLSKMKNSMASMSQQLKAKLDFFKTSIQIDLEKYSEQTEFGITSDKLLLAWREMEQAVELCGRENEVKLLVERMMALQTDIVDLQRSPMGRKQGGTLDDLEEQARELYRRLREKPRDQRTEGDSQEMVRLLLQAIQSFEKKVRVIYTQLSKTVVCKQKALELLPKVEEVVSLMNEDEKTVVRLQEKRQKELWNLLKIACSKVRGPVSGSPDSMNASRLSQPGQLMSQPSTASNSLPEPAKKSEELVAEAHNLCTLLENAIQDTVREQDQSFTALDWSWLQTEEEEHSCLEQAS
Protocol: as §1, §2
IKKb assay: 5-20 mU of IKKb (diluted in 50 mM Tris (pH 7.5), 0.1 mM EGTA, 1 mg/ml BSA, 0.1%, b-Mercaptoethanol) was assayed against substrate peptide ([…]) (SEQ ID NO: 20) in a final volume of 25.5 μl containing 50 mM Tris (pH 7.5), 0.1 mM EGTA, 0.1%, b-Mercaptoethanol, 300 μM substrate peptide, 10 mM magnesium acetate and 0.005 mM [33P-g-ATP] (500-1000 cpm/pmole) and incubated for 30 mins at room temperature. Assays were stopped by addition of 5 µl of 0.5M (3%) orthophosphoric acid. Assays were harvested onto P81 Unifilter plates using a wash buffer of 50 mM orthophosphoric acid.

[1] = 10 micromolar compound, read-out: mean activity remaining (as a percentage of the original activity), MAPKAP-K2
[2] = 10 micromolar compound, read-out: mean activity remaining (as a percentage of the original activity), CHK 1
[3] = 10 micromolar compound, read-out: mean activity remaining (as a percentage of the original activity), PIM3
[4] = 10 micromolar compound, read-out: mean activity remaining (as a percentage of the original activity), IKKb

MAPKAP-K2, sequence (P49137 whole entry, species assumed): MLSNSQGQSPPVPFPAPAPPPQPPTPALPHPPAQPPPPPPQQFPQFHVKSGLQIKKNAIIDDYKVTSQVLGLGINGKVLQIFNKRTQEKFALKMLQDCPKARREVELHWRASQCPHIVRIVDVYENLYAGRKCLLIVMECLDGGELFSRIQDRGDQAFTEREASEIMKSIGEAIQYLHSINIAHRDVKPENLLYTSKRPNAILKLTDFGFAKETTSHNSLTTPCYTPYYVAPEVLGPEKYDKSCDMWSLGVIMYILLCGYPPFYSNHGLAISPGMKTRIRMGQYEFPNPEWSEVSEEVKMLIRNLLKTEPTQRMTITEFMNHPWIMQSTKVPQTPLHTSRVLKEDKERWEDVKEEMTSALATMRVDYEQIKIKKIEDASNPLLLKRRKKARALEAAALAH

Compound | remaining activity at 10 µM (MAPKAP-K2; [1]) [%] | remaining activity at 10 µM (CHK1; [2]) [%] | remaining activity at 10 µM (PIM3; [3]) [%] | remaining activity at 10 µM (IKKβ; [4]) [%] | also measured
CC(C)c1cnn2c(NCc3ccccc3F)cc(NCCCCCN)nc12 [ICEC-0232] | – | – | – | – | mean activity remaining (as a percentage of the original activity), MAPKAP-K2 (MAPKAP-K2; 10 micromolar compound): 88%; mean activity remaining (as a percentage of the original activity), CHK 1 (CHK1; 10 micromolar compound): 87%; mean activity remaining (as a percentage of the original activity), PIM3 (PIM3; 10 micromolar compound): 76%; mean activity remaining (as a percentage of the original activity), IKKb (IKKβ; 10 micromolar compound): 84%
CC(C)c1cnn2c(NCc3ccccc3)cc(NCCCCCCCN)nc12 [BS-181] | – | – | – | – | remaining activity at 10 µM (MAPKAP-K2; MAPKAP-K2, 10 μM, read-out: Mean Remaining Enzyme Activity (%)): 88%; remaining activity at 10 µM (CHK1; CHK1, 10 μM, read-out: Mean Remaining Enzyme Activity (%)): 80%; remaining activity at 10 µM (PIM3; PIM3, 10 μM, read-out: Mean Remaining Enzyme Activity (%)): 78%; remaining activity at 10 µM (IKKβ; IKKβ, 10 μM, read-out: Mean Remaining Enzyme Activity (%)): 96%
CC[C@H](CO)Nc1cc(NCc2ccccc2)n2ncc(C(C)C)c2n1 [ICEC0067] | 110 | 100 | 96 | 84 | –
C=C[C@H](CO)Nc1cc(NCc2ccccc2)n2ncc(C(C)C)c2n1 [ICEC0065] | 111 | 87 | 100 | 81 | –
CC(C)c1cnn2c(NCc3ccccc3)cc(N[C@@H](CO)[C@H](O)CO)nc12 [ICEC0318, (3S)-3-(7-(Benzylamino)-3-isopropylpyrazolo[1,5-a]pyrimidin-5-ylamino)butane-1,2,4-triol] | 111 | 98 | 101 | 80 | –
